In a melting point compilation (Tetko et al.; mined from patent text by program, amines drawn as free bases though some values may be those of a salt) one finds melting point data, which are given here for 90 compounds.

A word on the melting point: it is the temperature, or range, at which the solid turns liquid. For `O=c1[nH]c2cc(Cl)c(Cl)cc2c(O)c1-c1ccccc1`, the melting point lay in the range of 347 to 349 °C.
The result for `O=C1[C@H]2CCC[C@H]2N(C(=O)CBr)c2ccccc2N1Cc1ccc([N+](=O)[O-])cc1` (relative stereo) reads 160 to 162 °C; that for `CN(C)C1(c2cccc(F)c2)CCC(=O)CC1`, 83 to 88 °C; that for `NCCCCn1cnc2ccccc21`, 119 to 123 °C.
The result for `CCOC(=O)CC[C@H](NC(=O)c1ccc(CN(C=O)CC2CNc3nc(NC(=O)C(C)(C)C)nc(O)c3C2)cc1)C(=O)OCC` (stereo not given in full) reads 149 to 151 °C; that for `Cc1c(C(=O)Nc2ccc(N3CCN(CCO)CC3)c(C#N)c2)cnn1-c1ccc(F)c(F)c1`, 164 to 165 °C.
To `O=C(O)c1ccc2oc3ccccc3c2c1` belongs 172 to 173 °C.
Turning to `O=C(NC(Cc1ccc(OCc2ccoc2)cc1)C(=O)O)c1cn2nc(-c3ccc(Cl)cc3)ccc2n1` (stereo not given), the melting point was 220 °C.
To `O=C(O)c1cnc(Oc2ccccc2)s1` belongs 172 to 173 °C; to `C#CC(C)(C)N1CCC(N2CCN(CCCN3CCCCC3)C2=C(C#N)C#N)CC1`, 112 to 115 °C.
To `NS(=O)(=O)C(F)(F)c1nnc(C(F)(F)S(N)(=O)=O)o1` belongs 171 to 172 °C; to `COc1ccc2c(=O)nc(-c3cccc(CCC(=O)OC(C)(C)C)n3)sc2c1`, 134 to 135 °C; to `COC(=O)C(OCc1ccc(-c2ccc(Cl)cc2)cc1)(C(F)(F)F)C(F)(F)F`, 61.5 to 62.5 °C.
To `COC(=O)C1=C(C)NC(C)=C(c2nc(CN(C)Cc3ccccc3)no2)C1c1cccc([N+](=O)[O-])c1` (stereo not given) belongs 127 to 128 °C; to `O=C(O)C1CCc2c(c(=O)c3cccnc3n2-c2cccc(Cl)c2)C1` (stereo not given), 279 to 280 °C.
Take `N#Cc1c(-c2ccc(OCc3ccccc3)cc2)cn(-c2cccc(OCCCl)c2)c1N`: the melting point was in the range of 77 to 79 °C.
The compound `COc1ccc(C2=CCN(c3ccc(Cl)c(Cl)c3)C2=O)cc1OCCN1CCCCC1` registered a melting point of 98 to 99 °C.
To `COc1ccc(Cn2nnc(-c3ccc(OC)c(C(=O)NCc4ccc(F)cc4)c3)n2)cc1` belongs 156 to 158 °C; to `COc1ccc(Oc2cccc(C(=O)NCCN(O)C(N)=O)c2)cc1`, 160 to 162 °C.
To `COc1ccccc1Cc1ccc(=O)[nH]n1` belongs 142 to 143 °C; to `Cc1nnsc1CS(=O)(=O)c1ccccc1`, 118 °C; to `CC[C@H]1Oc2ccccc2C(=O)N2CCC[C@@H]12`, 118 to 119 °C.
The result for `COC(=O)C(CCCCN1C(=O)c2ccccc2C1=O)C(=O)OC` reads 55 to 58 °C; that for `CCOC(=O)c1nc2ccc(CO)cc2n1OC`, 110 °C.
As to `O=C1CC(c2cccnc2)=NN1c1ccccc1`, the melting point was in the range of 102 to 103 °C.
The result for `CCNC(=O)N1C(=O)[C@H](O)[C@@H]1c1ccccc1` reads 141 to 142 °C; that for `CNC(=O)c1ccc(N2CCN(Cc3cc(C)c4c(c3)NC(=O)C(C)O4)CC2)c(C)c1` (stereo not given), 113 to 120 °C.
The result for `COc1c(Cl)nc(Cl)nc1-c1ccco1` reads 105 to 107 °C; that for `CCOC(=O)c1oc(C)c(O)c1O`, 120 to 121 °C; that for `CCCn1c(=O)c2c(nc(/C=C/c3ccc(OC(=O)c4ccccc4)c(OC)c3)n2C)n(CCC)c1=O`, 156 to 157 °C.
The result for `CCC(=Cc1cn(CC(=O)N(C)CCc2ccccc2)c2ccc(OCc3ccccc3)cc12)C(=O)O` reads 205 to 207 °C; that for `CCOC(=O)c1ccc(-c2csc(-c3ccccc3)n2)cc1`, 72 to 73 °C.
`O=C1CCC(c2ccc(N=C(CCc3ccccc3)c3ccc(O)cc3O)cc2)=NN1` displayed a melting point of 208 to 210 °C.
Turning to `Cn1nnnc1-c1cnc2cc(Br)ccc2c1O`, the melting point is above 300 °C.
The result for `COc1cc(N)c(Cl)cc1C(=O)NC1CCN(CC2CCN(C(=O)Nc3ccccc3)CC2)CC1` reads 212 to 214 °C.
The result for `COC1CCc2oc3ccc(Br)cc3c(=O)c2C1` (stereo not given) reads 139 to 142 °C.
Turning to `CNC(=S)C1(c2cccc(C)n2)CCCS1` (stereo not given), the melting point was 121 °C.
As to `O=c1[nH]c2ccc(I)cc2cc1[N+](=O)[O-]`, the melting point fell in the range of 279 to 282 °C.
To `CC(=O)c1c(C)c2c(C)[nH]c(-c3ccccc3)c2[nH]c1=O` belongs 250 to 251 °C; to `Cc1ccc(C(=O)n2c(C)c(C(C)C(=O)O)c3cc4c(cc32)OCO4)cc1` (stereo not given), 172 to 175 °C.
To `COC(=O)c1cc(I)ccc1NS(C)(=O)=O` belongs 119 to 120 °C.
The result for `Cc1noc(C)c1C(=O)N1CCC2(CC1)CSC1=C(O2)c2ccccc2C(=O)C1=O` reads 274 to 275 °C.
Take `CNC(=O)CN1CCc2cc(Nc3ncc(Cl)c(Nc4cc(C(N)=O)ccc4OC)n3)c(OC)cc2CC1`: the melting point lay in the range of 225 to 236 °C.
The result for `Fc1ccc2[nH]cc(C3=CCN(CC4COc5ccc6ncncc6c5O4)CC3)c2c1` (stereo not given) reads 233 to 235 °C.
To `CCOC(=O)c1ccc(CCC(=O)O)[nH]1` belongs 126 to 128 °C; to `OC(Cn1cncn1)(Cn1cnc(Cc2ccc(F)cc2)n1)c1ccccc1C(F)(F)F` (stereo not given), 100 to 103 °C.
The result for `Cc1ccc(-c2c(NS(=O)(=O)c3ccc(C(C)(C)C)cc3)ncnc2OCCOc2ncc(C=O)cn2)cc1` reads 191 to 193 °C; that for `CN(C(CCN1C(=O)CNC1=O)C(=O)NO)S(=O)(=O)c1ccc(Oc2ccccc2)cc1` (stereo not given), 146 to 147 °C; that for `O=C(NCc1ccccc1Cl)c1ccc(Br)cc1`, 133 °C.
Turning to `CN(C)CCCCCCSc1ncccc1C(=O)c1cccs1`, the melting point was in the range of 69 to 71 °C.
The result for `COc1cccc(COc2ccc3c(c2)C=C(C(=O)O)CCS3(=O)=O)c1` reads 220 to 222 °C.
The result for `Cc1c(C(=O)Nc2ccc(N3CCN(C)CC3)c(C#N)c2)cnn1-c1ccc(F)cc1` reads 205 to 207 °C; that for `O=Cc1c(O)cccc1OCc1ccc(-c2nnn[nH]2)cc1`, 206 °C.
`Cc1ccc(Nc2c3ccccc3nc3ccccc23)cc1[N+](=O)[O-]` displayed a melting point above 280 °C.
To `COc1ccc(CCNc2nc(C)c(CCO)c(=O)n2C)cc1` belongs 210 °C; to `CNc1nc(-c2cccc(NC(=O)c3ccc(OC)cc3)c2)c2cc(OC)c(OC)cc2n1`, 219 to 221 °C; to `O=C(O)c1cn(C2CC2)c2c(F)c(N3CCC(n4nncc4C(=O)O)C3)c(F)cc2c1=O` (stereo not given), 214 °C.
The result for `ClCCOc1ccc(Cl)c2[nH]ccc12` reads 68 to 72 °C; that for `CC(=O)NCCCC(=O)c1ccccc1`, 92 to 95 °C.
To `O=C(O)Cc1ccc([N+](=O)[O-])cc1CC(=O)O` belongs 187 to 188 °C.
`COc1ccc(N2CCN(c3c(C)c(C)c4c(c3C)C(O)C(C)(C)O4)CC2)cc1` (stereo not given) registered a melting point of 159 to 161 °C.
To `Brc1ccc2nc(COc3ccc(CCCn4ccnc4)cc3)cn2c1` belongs 103 to 104 °C.
For the compound `Nc1cc(Br)nc(Br)c1[N+](=O)[O-]`, the melting point came out at 140 °C.
To `Cc1cc(-c2nc3cccnn3c2-c2ccnc(NC(=O)c3ccc(N(C)C)cc3)c2)ccc1F` belongs 245 to 246 °C; to `O=C(O)CCc1cnoc1-c1ccc(Cl)c(Cl)c1`, 171 to 172 °C; to `NS(=O)(=O)c1sccc1C(F)=C(F)C(F)(F)F`, 108 to 111 °C.
In the case of `CCOC(=O)CCc1oc(-n2ccnc2)nc1-c1ccc(Cl)cc1`, the melting point was 67 to 68 °C.
To `COC(=O)C(C)N(C(=O)CCl)c1c(Cl)cccc1Cl` (stereo not given) belongs 82 to 85 °C; to `COC(=O)c1ccc([N+](=O)[O-])cc1NC(=O)c1ccc(C(C)(C)C)cc1`, 146 to 148 °C; to `CC(C)(C)c1cc(C(=O)c2ccccn2)cc2c1OCC2(C)C`, 95 to 97 °C.
The compound `Cc1cc(C)nc(NC(=O)NS(=O)(=O)c2cccn2CCC#N)n1` had a melting point of 158 to 159 °C.
The compound `Cc1sc2c(c1C)C(c1ccc(Cl)cc1)=N[C@@H](CC(=O)Nc1ccc(O)cc1)c1nnc(C)n1-2` showed a melting point of 215 to 220 °C.
`CNc1nc(-c2ccc(F)cc2)n(-c2ccc(SC)cc2)c(=O)c1C#N` yielded a melting point of 219 to 222 °C.
The result for `COCc1cc2ccccc2oc1=O` reads 72 to 73 °C; that for `CC(=O)NC1Cc2cccc3cccc(c23)C1=O` (stereo not given), 185 to 186 °C; that for `COc1cc(-c2oc3ccccc3c(=O)c2OCC(O)CN2CCN(c3ccccc3)CC2)cc(OC)c1OC` (stereo not given), 170 to 171 °C.
On to `COc1cc(C(=O)CCCc2ccccc2)cc([N+](=O)[O-])c1O`, for which the melting point is 120 to 121 °C.
To `S=c1oc2ccccc2o1` belongs 151 to 153 °C; to `CC(=O)Oc1ccc(-c2cncnc2Cl)cc1OC(C)=O`, 108 °C; to `Clc1cccc(Oc2ccc(OCc3ccc(Br)s3)cc2)n1`, 78 to 80 °C.
Turning to `CC(C)(C)OC(=O)N1C(=O)[C@@H](O[Si](C)(C)C)[C@H]1c1ccccc1`, the melting point fell in the range of 85 to 88 °C.
To `Cn1ncc2c(=O)n3c(nc21)SCCC3` belongs 179 to 180 °C; to `CCCC[C@H](NC(=O)[C@H](CC(C)C)NC(=O)COc1ccc(F)cc1)C(=O)CSCc1ccco1`, 88 to 91 °C; to `CCN(CC)c1ccc(/C=C/c2cc(/C=C/c3ccc4cc[nH]c4c3)[nH]n2)c(OC)c1`, 104 to 108 °C.
To `CCCC#Cc1cnc(-c2ccc(C(F)(F)F)cc2)nc1` belongs 140 °C; to `COC(=O)COc1ccc([C@H]2c3ccc(OCc4ccccc4)cc3OC[C@H]2c2ccccc2)cc1` (racemic), 143 to 144 °C; to `CCN(CC)Cc1nc(-c2ncn3c2CN(C)C(=O)c2c(Cl)cccc2-3)no1`, 250 to 252 °C.
The compound `Cc1[nH]c(=O)ccc1-c1ccc(S(C)=O)cc1` (stereo not given) had a melting point of 262 to 264 °C.
The result for `CC(C)CC(NC(=O)O)C(=O)NC(C)(C)C#N` (stereo not given) reads 166 to 168 °C; that for `CC(C)(C)OC(=O)Nc1cc(OC(C)(C)C)c(I)cc1[N+](=O)[O-]`, 94 °C.
